The text below walks through data of patent US20250361214A1, “TRIAZINE LIPIDS, LIPID SYNTHESIS, AND METHODS FOR INHIBITING CANONICAL NFKB TRANSCRIPTIONAL ACTIVITY” (University of Kentucky Research Foundation, priority 2022, published 2025).

pIC50: −log10 of the molar value. Some results are limits rather than exact numbers.

Series [1] relates to murine macrophages. The conditions noted are these: incubation of murine macrophages; cited from earlier work.
Series [2] has as its system canonical NFKB. Briefly: THP-1-Blue NFKB reporter (SEAP) assay. It is filed as cell-based, human. The following applies: THP-1-Blue cells stimulated with TNFα.
The subject of series [3] is plasmid DNA. Kind of series: Gel shift assay using plasmid DNA. The following applies: 1:1 molar ratio cationic lipid and DOPE, agarose gel. It is filed as binding. The method, then:
Gel Shift Assays Using Plasmid DNA. Nanoparticles consisting of a 1:1 molar ratio of cationic lipid/DOPE were rehydrated in a 20 mM HEPES solution at pH 4. […] The gels were visualized and photographed using a Bio-Rad ChemiDoc XR system using the manufacturer's software.
(In EMSA bound probe runs differently from free probe, usually more slowly.)

Series [4] deals with C57BL/6J mice. Kind of series: In vivo toxicity of cationic lipid nanoparticles (ALT, IL-6, SCr, mortality).
The test system of series [5] is bone marrow derived macrophages. Kind of series: in vitro. The conditions noted are these: female, C57BL/6J, mouse, 24 h. It is filed as cell-based. As to the method:
(§1) Cell Culture of Bone Marrow-Derived Macrophages. […] After 7 days, the cells were transferred to tissue culture 96 well plates (Corning) at a density of 100,000 in 20 μL of medium and allowed to settle overnight for subsequent assays.
(§2) Lactate Dehydrogenase Release (LDH) Toxicity Assay. For determination of cytotoxicity, mature bone marrow-derived macrophages (BMDM) were treated with 20 μL of the lipids (concentrations denoted in figure legend) diluted in 20 mM HEPES buffer, with HEPES buffer as negative control and 10% Triton X-100 as positive control. After 24 hours, the 96 well plates were centrifuged at 200×g for 5 minutes to remove debris and 100 μL of media was transferred to an untreated flat-bottom 96 well plate. Next, 100 μL of LDH reaction reagent purchased from Cayman Chemical (Ann Arbor, MI) was added to each and allowed to sit for 30 minutes at 37° C. Absorbance at 490 and 680 nm were measured using a BioTek Synergy H1 plate reader and the data were processed using Microsoft Excel. Mean values from triplicates are shown for one of two independent experiments.

A short description of series [6]: in vitro. It is filed as cell-based. The conditions noted are these: female, C57BL/6J, mouse. The method, then:
as §1, §2

Series [7] can be described thus: Differential scanning calorimetry, transition temperature (Tm) of lipids. It counts as physicochemical. The following applies: liposomes of pure lipid, 10 mM in 20 mM HEPES, DSC. As to the method:
Differential Scanning calorimetery. The transition temperature (Tm) of the lipids was determined using a multicell differential scanning calorimeter (TA Instruments). Liposomes were made with triazine lipids at a concentration of 10 mM in 20 mM HEPES buffer. These were heated to 60° C. and sonicated until the solution was translucent. For Tm determination, 250 μL of the liposome solution was transferred into reusable hastelloy ampoules while 250 μL of the HEPES solution was transferred to the third ampoule, leaving the reference ampoule empty. […] Data was collected over a range of 10-110° C. at a rate of 2° C. min-1 in a heat-cool-heat cycle. After the run was complete, the CpCalc 2.1 software package was used to convert the raw data into a molar heat capacity and the data from the second heating cycle were processed using Microsoft Excel.
In general terms: In DSC, transitions show as peaks or steps in heat flow.

The subject of series [8] is HeLa cells. Briefly: Transfection of luciferase plasmid. It is filed as cell-based. The method, then:
Transfection of Luciferase Plasmid and Cell Viability. HeLa cells cultured in EMEM (ATCC) supplemented with 10% fetal bovine serum were transferred to a 96 well plate, in quadruplicate, at a density of 20,000 cells per well and incubated for 24 hours at 37° C. in 5% CO2. Liposomes made with a 1:1 ratio of DOPE and TZ lipid were added to 200 ng pGL3 Luciferase Reporter Vector (Promega) at N:P ratios of 2.5, 5 and 10, and incubated at 37° C. for 10 minutes before being diluted in 100 μL of nonsupplemented EMEM and added to the cells. Following a four hour incubation at 37° C., the media was changed, and the cells were incubated for another twenty hours, at which point the cells were lysed with a cell culture lysis reagent at pH 7.8 composed of 25 mM Tris-phosphate buffer, 0.7 g L^−1 1,2-diaminocyclohexane, 10% glycerol, 1% Triton X-100, and 1% protease inhibitor cocktail (Millipore). Total protein content was determined with a bicinchoninic acid assay (G-Biosciences) and luciferase protein expression was quantified by a luciferase assay (Promega). Cell viability was assessed using a Cell Titer Blue assay kit (Promega) based on the manufacturer's instructions. In each of the three independent experiments performed, transfection was compared with cells treated with Lipofectamine 3000 (Thermo), following the manufacturer's instructions, and with DNA treated cells.

A short description of series [9]: Size and charge determination of nanoparticles (Zetasizer Nano ZS), Example 1. It is filed as physicochemical. The text has this: Size and Charge Determination.
In series [10] the test system is cIAP. The following applies: cited from earlier work.
The mark [11] stands for this setting: 20 mM lipid, i.p., versus baseline.

`CC[C@H]1OC(=O)[C@H](C)[C@@H](O[C@H]2C[C@@](C)(OC)[C@@H](O)[C@H](C)O2)[C@H](C)[C@@H](O[C@@H]2O[C@H](C)C[C@H](N(C)C)[C@H]2O)[C@](C)(O)C[C@@H](C)CN(C)[C@H](C)[C@@H](O)[C@]1(C)O` [azithromycin]: in [1], the IKKβ expression result was “increases the overall expression of IKβ kinase (IKKB)”.

Consider `CCCCCCCC/C=C\CCCCCCCC(=O)OC[C@@H](COP(=O)(O)OCCN)OC(=O)CCCCCCC/C=C\CCCCCCCC` (stereo in doubt) [DOPE, 1,2-dioleoyl-sn-glycero-3-phosphoethanolamine, reference compound], for which the “canonical NFKB inhibition” value in series [2] is on record as “exhibited no activity”. In addition, the “N:P ratio at which nucleic acid is complexed / migration inhibited” value in series [3] is “unable to prevent migration”.

For orientation: IC50 means the point on the concentration scale where inhibition reaches its midpoint. Regarding `CCCCCCCCCCCCN(CCCCCCCCCCCC)c1nc(NCCCN(C)C)nc(NCCCN(C)C)n1` [Lipid 9], in [4] (10 mM lipid, i.p.), the deaths entry was “one mouse dying”, the “interleukin 6 (IL-6)” value was “statistically significant increases” and the “serum alanine aminotransferase (ALT)” value is on record as “statistically significant increases”. Moreover, the deaths entry in series [4] (20 mM lipid, i.p.) is given as “three of the ten mice in this group died”. In [4] (setting [11]), the “interleukin 6 (IL-6)” value is recorded as “significant elevations”, the “serum alanine aminotransferase (ALT)” value is “significant elevations” and the “serum creatinine (SCr)” value was “elevated but did not reach statistical significance”. Besides, in series [4] (100 μL cationic lipid nanoparticles i.p.), the “in vivo toxicity (overall)” value is “confers significant toxicity and mortality”. For the same compound, the “visual examination of internal organs” value in series [4] (72 hours, 10 and 20 mM) is “significant inflammation and swelling throughout the intestines and abdominal cavity”. In series [5], the LD50 turned out to be 337 mM. Also, the IC50 at 24 h in series [6] was 337 µM. For the same compound, the Tm in series [7] is under 10 °C. Further, the “plasmid transfection (luciferase)” value in [8] (TZ lipid:DOPE 1:1, compared with naked plasmid) was “better efficacy than the lipids with C18 tails”. Besides, the luciferase expression in series [8] (average, lipid 9:DOPE 1:1 at an N:P ratio of 5, 200 ng pGL3) was found to be 462 RLU per mg. In addition, in [9] (nanoparticles of pure lipid (Table 1)), the PDI amounted to 0.24 ± 0.00. In series [9] (nanoparticles of pure lipid, 1 mM, 25° C. (Table 1)), the Size amounted to 159 ± 1 nm. Moreover, in [9] (zeta potential, nanoparticles of pure lipid (Table 1)), the Charge amounted to 45 ± 2 mV.

For orientation: pIC50 means the negative decadic logarithm of the IC50, by convention in mol/L. Consider `CC[C@H](NC(=O)[C@H](C)NC)C(=O)N1C[C@@H](O)C[C@H]1Cc1c(-c2[nH]c3cc(F)ccc3c2C[C@@H]2C[C@H](O)CN2C(=O)[C@H](CC)NC(=O)[C@H](C)NC)[nH]c2cc(F)ccc12` [birinapant], for which the pIC50 in series [10] is 7.30.
